# Legend:
# Assay type in all cases: cell-based
# [1] = system: Wnt activity (Sp5-Luc reporter, SW480 colon carcinoma cells); assay: Wnt activity screening assay, Sp5-Luc reporter gene in SW480 cells; conditions: Homo sapiens; for inhibition at 10 µM: given for EC50 >10 μM, read-out: percent inhibition at 10 μM; for EC50: overnight incubation
# Description: The screening assay for Wnt activity is described as follows. Reporter cell lines can be generated by stably transducing cancer cell lines (e.g., colon cancer) or primary cells (e.g., IEC-6 intestinal cells) with a lentiviral construct that includes a Wnt-responsive promoter driving expression of the firefly luciferase gene.
# SW480 colon carcinoma cells were transduced with a lentiviral vector expressing luciferase with a human Sp5 promoter consisting of a sequence of eight TCF/LEF binding sites. SW480 cells stably expressing the Sp5-Luc reporter gene and a hygromycin resistance gene were selected by treatment with 150 μg/mL of hygromycin for 7 days. These stably transduced SW480 cells were expanded in cell culture and used for all further screening activities. Each compound was dissolved in DMSO as a 10 mM stock and used to prepare compound source plates. Serial dilution (1:3, 10-point dose-response curves starting from 10 μM) and compound transfer was performed using the ECHO 550 (Labcyte, Sunnyvale, Calif.) into 384-well white solid bottom assay plates (Greiner Bio-One) with appropriate DMSO backfill for a final DMSO concentration of 0.1%. For Sp5-Luc reporter gene assays, the cells were plated at 4,000 cells/well in 384-well plates with medium containing 1% fetal bovine serum and incubated overnight at 37° C. and 5% CO2. Following incubation, 20 μl of BrightGlo luminescence reagent (Promega) was added to each well of the 384-well assay plates. The plates were placed on an orbital shaker for 2 min and then luminescence was quantified using the Envision (Perkin Elmer) plate reader. Readings were normalized to DMSO only treated cells, and normalized activities were utilized for EC50 calculations using the dose-response log (inhibitor) vs. response—variable slope (four parameters) nonlinear regression feature available in GraphPad Prism 5.0 (or Dotmatics). For EC50 of >10 μM, the percent inhibition at 10 μM is provided.
# SW480 colon cancer cells = assay: Cell viability assay (CellTiter-Blue); conditions: Homo sapiens, 96 h, four days; for inhibition at 10 µM: given for EC50 >10 μM, read-out: percent inhibition at 10 μM
# Method: Representative compounds were screened using the following assay procedure to assess the effect on cell viability as described below.
# Each compound was dissolved in DMSO as a 10 mM stock and used to prepare compound source plates. Serial dilution (1:3, 8-point dose-response curves from 10 μM to 0.0045 μM) and compound transfer was performed using the ECHO 550 (Labcyte, Sunnyvale, Calif.) into 96-well clear bottom, black-walled plates (Corning-Costar).
# Approximately 2×10^3 SW480 colon cancer cells were seeded into each well and allowed to incubate in the presence or absence of compound for four days at 37° C./5% CO2. Eight replicates of DMSO-treated cells served as controls and cells treated with compound were performed in duplicate.
# After incubation, 20 μL of CellTiter-Blue (Promega) was added to each well allowed to incubate for approximately 3 hours. This reagent was a buffered solution which contains resazurin, metabolically active cells were able to reduce rezarurin (blue) into resorufin (pink) which was highly fluorescent. This measured fluorescence was used as a readout for cell viability.
# After incubation, the plates were read at Ex 560 nm Em 590 nm (Cytation 3, BioTek). Dose-response curves were generated and EC50 concentration values were calculated using non-linear regression curve fit in the GraphPad Prism (San Diego, Calif.) or Dotmatics' Studies Software (Bishops Stortford, UK). For EC50 of >10 μM, the percent inhibition at 10 μM is provided.
# [2] = system: IL-6 (THP-1 human monocyte cell line); assay: IL-6 inhibition in LPS-stimulated THP-1 cells (HTRF); conditions: LPS 500 ng/mL; for EC50: 22 hours, IL6 HTRF; for inhibition at 10 µM: given for EC50 >10 μM, read-out: percent inhibition at 10 μM
# Method: Human monocyte cell line (THP-1 cells; Catalog # TIB-202, ATCC, Manassas, Va.) were cultured in Roswell Park Memorial Institute (RPMI) 1640 Medium (Catalog #21870-100, Buffalo, N.Y.) with 1% L-glutamine, 1% HEPES, 1% Sodium Pyruvate, 2% Sodium Bicarbonate supplemented with 100 units/mL penicillin, 50 μg/mL streptomycin, 2-mercaptoethanol (0.05 mM) [basal medium] and 10% fetal bovine serum (Catalog #16140089, Life Technologies, Carlsbad, Calif.) at 37° C. and 5% CO2.
# THP-1 cells were cultured in basal media with 1% FBS for 24 hours before the start of the assay. Each compound was dissolved in DMSO as a 10 mM stock and used to prepare compound source plates. Serial dilution (1:3, 10-point dose-response curves starting from […]) and compound transfer was performed using the ECHO 550 (Labcyte, Sunnyvale, Calif.) into 384-well white low volume assay plates (Greiner Bio-One) with appropriate DMSO backfill for a final DMSO concentration of 0.1%. THP-1 cells were plated at 5000 cells/well in the 384-well plates and incubated at 37° C. for 2 h. 500 ng/mL of LPS was added after 2 hours and cells were incubated for another 22 hours at 37° C. Plates were spun in a centrifuge for 1 minute at 10,000 rpm and a mixture of anti-IL6 XL665, and anti-IL6 Cryptate diluted in reconstitution buffer (Cisbio Inc.) was added to each well. Following incubation for 3 hrs at room temperature, Homogeneous Time-Resolved Fluorescence (HTRF) was measured using the Envision (Perkin Elmer) at 665 nm and […]. The ratio of fluorescence at 665 nm to 620 nm was used as a readout for IL6 quantification. All samples were processed in duplicate. Readings were normalized to DMSO treated cells and normalized activities were utilized for EC50 calculations using the dose-response log (inhibitor) vs. response—variable slope (four parameters) nonlinear regression feature available in GraphPad Prism 5.0 (or Dotmatics). For EC50 of >10 μM, the percent inhibition at 10 μM is provided.
smiles,measurement,setting,value
"O=C(Nc1cncc(-c2cnc3[nH]nc(-c4cc5c(-c6cccc(F)c6)ccnc5[nH]4)c3c2)c1)c1ccccc1 [Compound 11, N-(5-(3-(4-(3-Fluorophenyl)-1H-pyrrolo[2,3-b]pyridin-2-yl)-1H-pyrazolo [3,4-b]pyridin-5-yl)pyridin-3-yl)benzamide]",inhibition at 10 µM,[1],10%
same,EC50,[1],> 10 µM
same,EC50,SW480 colon cancer cells,0.643 µM
same,EC50,[2],> 10 µM
same,inhibition at 10 µM,[2],14.1%
"CC(C)Nc1cncc(-c2cnc3[nH]nc(-c4cc5c(-c6ccccc6F)ccnc5[nH]4)c3c2)c1 [Compound 68, 5-(3-(4-(2-Fluorophenyl)-1H-pyrrolo[2,3-b]pyridin-2-yl)-1H-pyrazolo[3,4-b]pyridin-5-yl)-N-isopropylpyridin-3-amine]",inhibition at 10 µM,[1],4.6%
same,EC50,[1],> 10 µM
same,EC50,SW480 colon cancer cells,> 10 µM
same,inhibition at 10 µM,SW480 colon cancer cells,1%
same,EC50,[2],> 10 µM
same,inhibition at 10 µM,[2],42.9%
"CCCC(=O)Nc1cncc(-c2cnc3[nH]nc(-c4cc5c(N6CCCCC6)ccnc5[nH]4)c3c2)c1 [Compound 185, N-(5-(3-(4-(Piperidin-1-yl)-1H-pyrrolo[2,3-b]pyridin-2-yl)-1H-pyrazolo[3,4-b]pyridin-5-yl)pyridin-3-yl)butyramide]",inhibition at 10 µM,[1],10.9%
same,EC50,[1],> 10 µM
same,EC50,SW480 colon cancer cells,> 10 µM
same,inhibition at 10 µM,SW480 colon cancer cells,4.9%
same,EC50,[2],> 10 µM
same,inhibition at 10 µM,[2],41.2%
"CN(C)Cc1cncc(-c2cnc3[nH]nc(-c4cc5c(N6CCCCC6)ccnc5[nH]4)c3c2)c1 [Compound 181, N,N-Dimethyl-1-(5-(3-(4-(piperidin-1-yl)-1H-pyrrolo[2,3-b]pyridin-2-yl)-1H-pyrazolo[3,4-b]pyridin-5-yl)pyridin-3-yl)methanamine]",inhibition at 10 µM,[1],38.8%
same,EC50,[1],> 10 µM
same,EC50,SW480 colon cancer cells,> 10 µM
same,inhibition at 10 µM,SW480 colon cancer cells,40.9%
same,EC50,[2],0.007 µM
"CC(C)C(=O)Nc1cncc(-c2cnc3[nH]nc(-c4cc5c(-c6cccnc6)ccnc5[nH]4)c3c2)c1 [Compound 93, N-(5-(3-(4-(Pyridin-3-yl)-1H-pyrrolo[2,3-b]pyridin-2-yl)-1H-pyrazolo[3,4-b]pyridin-5-yl)pyridin-3-yl)isobutyramide]",inhibition at 10 µM,[1],15.4%
same,EC50,[1],> 10 µM
same,EC50,SW480 colon cancer cells,> 10 µM
same,inhibition at 10 µM,SW480 colon cancer cells,10.1%
same,EC50,[2],> 10 µM
same,inhibition at 10 µM,[2],26.2%
"CC(C)(C)C(=O)Nc1cncc(-c2cnc3[nH]nc(-c4cc5c(N6CCCCC6)ccnc5[nH]4)c3c2)c1 [Compound 176, N-(5-(3-(4-(Piperidin-1-yl)-1H-pyrrolo[2,3-b]pyridin-2-yl)-1H-pyrazolo[3,4-b]pyridin-5-yl)pyridin-3-yl)pivalamide]",inhibition at 10 µM,[1],5%
same,EC50,[1],> 10 µM
same,EC50,SW480 colon cancer cells,> 10 µM
same,inhibition at 10 µM,SW480 colon cancer cells,2.9%
same,EC50,[2],1.2 µM
"Nc1cncc(-c2cnc3[nH]nc(-c4cc5c(-c6ccccc6F)ccnc5[nH]4)c3c2)c1 [Compound 59, 5-(3-(4-(2-Fluorophenyl)-1H-pyrrolo[2,3-b]pyridin-2-yl)-1H-pyrazolo[3,4-b]pyridin-5-yl)pyridin-3-amine]",inhibition at 10 µM,[1],48.3%
same,EC50,[1],> 10 µM
same,EC50,SW480 colon cancer cells,> 10 µM
same,inhibition at 10 µM,SW480 colon cancer cells,20.1%
same,EC50,[2],> 10 µM
same,inhibition at 10 µM,[2],34.8%
"CC(C)(C)CC(=O)Nc1cncc(-c2cnc3[nH]nc(-c4cc5c(-c6ccoc6)ccnc5[nH]4)c3c2)c1 [Compound 324, N-(5-(3-(4-(Furan-3-yl)-1H-pyrrolo[2,3-b]pyridin-2-yl)-1H-pyrazolo[3,4-b]pyridin-5-yl)pyridin-3-yl)-3,3-dimethylbutanamide]",inhibition at 10 µM,[1],4.2%
same,EC50,[1],> 10 µM
same,EC50,SW480 colon cancer cells,> 10 µM
same,inhibition at 10 µM,SW480 colon cancer cells,5.3%
same,EC50,[2],> 10 µM
same,inhibition at 10 µM,[2],28.6%
"c1cncc(-c2cnc3[nH]nc(-c4cc5cccnc5[nH]4)c3c2)c1 [Compound 256, 5-(Pyridin-3-yl)-3-(1H-pyrrolo[2,3-b]pyridin-2-yl)-1H-pyrazolo[3,4-b]pyridine]",EC50,[1],1.06 µM
same,EC50,SW480 colon cancer cells,> 10 µM
same,inhibition at 10 µM,SW480 colon cancer cells,5.8%
same,EC50,[2],0.121 µM
"Cc1ncc(-c2cnc3[nH]nc(-c4cc5c(-c6cc(F)cc(NCCN(C)C)c6)ccnc5[nH]4)c3c2)n1C [Compound 781, N^1-(3-(2-(5-(1,2-Dimethyl-1H-imidazol-5-yl)-1H-pyrazolo[3,4-b]pyridin-3-yl)-1H-pyrrolo[2,3-b]pyridin-4-yl)-5-fluorophenyl)-N^2,N^2-dimethylethane-1,2-diamine]",EC50,[1],4.46 µM
same,EC50,SW480 colon cancer cells,> 10 µM
same,inhibition at 10 µM,SW480 colon cancer cells,0%
same,EC50,[2],> 10 µM
same,inhibition at 10 µM,[2],44.5%
"CN(C)c1cncc(-c2cnc3[nH]nc(-c4cc5c(-c6ccccc6F)ccnc5[nH]4)c3c2)c1 [Compound 63, 5-(3-(4-(2-Fluorophenyl)-1H-pyrrolo[2,3-b]pyridin-2-yl)-1H-pyrazolo[3,4-b]pyridin-5-yl)-N,N-dimethylpyridin-3-amine]",inhibition at 10 µM,[1],4%
same,EC50,[1],> 10 µM
same,EC50,SW480 colon cancer cells,> 10 µM
same,inhibition at 10 µM,SW480 colon cancer cells,16.1%
same,EC50,[2],> 10 µM
same,inhibition at 10 µM,[2],11.3%
"CCCCC(=O)Nc1cncc(-c2cnc3[nH]nc(-c4cc5cccnc5[nH]4)c3c2)c1 [Compound 271, N-(5-(3-(1H-Pyrrolo[2,3-b]pyridin-2-yl)-1H-pyrazolo[3,4-b]pyridin-5-yl)pyridin-3-yl)pentanamide]",inhibition at 10 µM,[1],6.5%
same,EC50,[1],> 10 µM
same,EC50,SW480 colon cancer cells,> 10 µM
same,inhibition at 10 µM,SW480 colon cancer cells,11.4%
same,EC50,[2],0.041 µM
"c1cncc(-c2ccnc3[nH]c(-c4n[nH]c5ncc(-c6cncc(CN7CCCCC7)c6)cc45)cc23)c1 [Compound 99, 5-(5-(Piperidin-1-ylmethyl)pyridin-3-yl)-3-(4-(pyridin-3-yl)-1H-pyrrolo[2,3-b]pyridin-2-yl)-1H-pyrazolo[3,4-b]pyridine]",inhibition at 10 µM,[1],26%
same,EC50,[1],> 10 µM
same,EC50,SW480 colon cancer cells,> 10 µM
same,inhibition at 10 µM,SW480 colon cancer cells,9.6%
same,EC50,[2],> 10 µM
same,inhibition at 10 µM,[2],37%
"c1csc(-c2ccnc3[nH]c(-c4n[nH]c5ncc(-c6cncc(OC7CCCCC7)c6)cc45)cc23)c1 [Compound 703, 5-(5-(Cyclohexyloxy)pyridin-3-yl)-3-(4-(thiophen-2-yl)-1H-pyrrolo[2,3-b]pyridin-2-yl)-1H-pyrazolo[3,4-b]pyridine]",inhibition at 10 µM,[1],38.6%
same,EC50,[1],> 10 µM
same,EC50,SW480 colon cancer cells,> 10 µM
same,inhibition at 10 µM,SW480 colon cancer cells,23.3%
same,EC50,[2],> 10 µM
same,inhibition at 10 µM,[2],11%

# Source: patent US10285983B2, “3-(1H-pyrrolo[2,3-B]pyridin-2-yl)-1H-pyrazolo[3,4-B] pyridines and therapeutic uses thereof” (Samumed, LLC, priority 2015, dated 2019)
